Data from US9156790B2, “Anticancer P21-activated kinase inhibitors” (Ohio State Innovation Foundation, priority 2013, dated 2015).
Entries after “also recorded” stand apart in the source; their conditions may differ.

Key:
[1] = tested on: PDK1 phosphorylation of Akt (Thr308); assay: Western blot, PDK1 phosphorylation of Akt (Thr308) in thyroid cancer cells; type: cell-based, Human; settings: BCPAP; for PDK1 phosphorylation of Akt (Thr308) (Western blot): 7.5 μM, 6 h, FTC133 and TPC1 cells (FIG. 3); for Dose-dependency of PDK-mediated Akt phosphorylation: dose-response, 6 hours, FTC133 and TPC1 cells (FIG. 4A)
Procedure: Protein isolation and Western blot were performed as previously described. Ringel et al., Cancer research 61:6105-6111 (2001). 25 μg of total cell lysates were loaded into 4-12% SDS-PAGE, electrophoresed, and transferred to nitrocellulose membranes for immunoblotting. Primary antibodies against Akt (#9272), phospho-Akt (Thr308) (#2965), p44/42 MAPK (Erk1/2) (#9107), phospho-p44/42 MAPK (Erk1/2) (Thr202/Tyr204) (#4377) and GAPDH (#2118) were obtained from Cell Signaling Technology (Danvers, Mass., USA). Antibody against Vimentin (V6630) and phospho-Ser55 Vimentin were from Sigma-Aldrich, Inc. (St. Louis, Mo.) and MBL Co. (Nagoya, Japan), respectively. Antibodies against total and phosphorylated S6 were from Cell Signaling Technology®.
The ability of the compounds with in vitro anti-PAK1 activity was assessed for activity […] in thyroid cancer cells. In addition, because the compounds are based on the structure of a PDK1 inhibitor, PDK1 inhibitory activity was also assessed. Inhibitory activity in cells was estimated using Western blot with primary antibodies directed against kinase-specific phosphorylation sites; serine 56 of vimentin for PAK and threonine 308 of Akt for PDK1. BCPAP, TPC1, and FTC133 thyroid cancer cells were utilized. BCPAP and TPC1 are derived from PTC and have BRAF V600E and RET/PTC1 rearrangements, respectively. FTC133 is derived from a follicular thyroid cancer with an inactivating mutation of PTEN. Similar to the kinase screening assay, cells were treated with the six compounds or OSU-03012 at 7.5 μM concentration or with DMSO vehicle alone. The results were not entirely consistent across the three cell lines presumably related to mutation status or other factors. OSU-03012 inhibited both PDK1 and PAK-mediated phosphorylation of targets as predicted.
The dose-dependency of compounds 4 and 15 was next assessed (FIG. 4). […] Due to the important role that ERK activation plays in thyroid cancer, and its signaling activation by thyroid oncogenes, the effects of the compounds on ERK phosphorylation was also assessed.

MEK1 = MEK1 (Homo sapiens, UniProt Q02750); assay: Kinase profiling panel: MEK1; type: biochemical; settings: 5 μM compound; average of triplicate
Procedure: (§1) To further probe the selectivity of the compounds 4 and 15, they were subjected for kinase profiling service for screening against a panel of other kinases selected based on the kinase tree at 5 μM concentration, at or above the IC50 for the two compounds versus PAK in both in vitro and cell-based assays. […] PAK1 was not available for testing using this system thus it was not possible to compare directly in this assay system.

SGK = target: T1, SGK (Homo sapiens, UniProt O00141); assay: Kinase profiling panel: SGK; type: biochemical; settings: 5 μM compound; for % activity vs. DMSO, SGK: average of triplicate
T1 sequence (O00141 1-431): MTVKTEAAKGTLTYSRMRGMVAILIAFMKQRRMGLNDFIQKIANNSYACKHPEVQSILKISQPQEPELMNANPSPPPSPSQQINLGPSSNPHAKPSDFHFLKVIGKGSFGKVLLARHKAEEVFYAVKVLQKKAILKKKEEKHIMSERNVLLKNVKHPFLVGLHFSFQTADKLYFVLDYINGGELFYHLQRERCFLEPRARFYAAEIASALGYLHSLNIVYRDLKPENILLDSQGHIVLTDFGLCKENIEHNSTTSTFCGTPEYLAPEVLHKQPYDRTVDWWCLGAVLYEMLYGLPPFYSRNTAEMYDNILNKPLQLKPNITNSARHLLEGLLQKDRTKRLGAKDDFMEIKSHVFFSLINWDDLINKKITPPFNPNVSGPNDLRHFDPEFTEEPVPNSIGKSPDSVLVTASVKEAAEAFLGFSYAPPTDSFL
Procedure: as §1

CDK5/p25 = CDK5/p25 (Homo sapiens, UniProt Q00535); assay: Kinase profiling panel: CDK5/p25; type: biochemical; settings: 5 μM compound; average of triplicate
Procedure: as §1

TPC1 cells = assay: Boyden chamber migration assay, TPC1; type: cell-based, Human; settings: 5 μM, 24 hours, P<0.05 versus DMSO
Procedure: Cells were grown in media containing 10% FBS. After 24 hours, the medium was aspirated, and media containing 1% FBS was added for 24 hours. The cells were trypsinized for 2 to 5 minutes, washed, and resuspended in media containing 1% FBS. The cell concentration was calculated by hemocytometer. Four hundred μl 1% FBS medium was added into 24-well plates, and a Boyden chamber (8 μm pore) was inserted into each well. Cells were added to each insert, and were allowed to attach in an incubator at 37° C. at 5% CO2 for 2 hours. The cells were then exposed to various concentrations of drugs or control diluent for 3 hours. The inserts were switched to a new well containing media containing 10% FBS, and the chamber was incubated for 12 or 24 hours depending on the migration rate of the cell line. The cells on and under the Boyden chamber membrane were fixed with 3.7% formaldehyde containing 0.05% crystal violet for 15 min after washing cells with PBS. The chambers were washed with distilled water. […] The Q-tips containing the scraped cells and the Boyden chamber containing the non-migrated cells were separately incubated in 80% methanol, shaken at 500 g for 30 minutes, and the extracted dye was measured at 570 nm. Migration was quantified as the ratio of the migrated cells over the total cells (non-migrated plus […]). […]

Chain of CDK5/p25 (Q00535 whole entry, species assumed): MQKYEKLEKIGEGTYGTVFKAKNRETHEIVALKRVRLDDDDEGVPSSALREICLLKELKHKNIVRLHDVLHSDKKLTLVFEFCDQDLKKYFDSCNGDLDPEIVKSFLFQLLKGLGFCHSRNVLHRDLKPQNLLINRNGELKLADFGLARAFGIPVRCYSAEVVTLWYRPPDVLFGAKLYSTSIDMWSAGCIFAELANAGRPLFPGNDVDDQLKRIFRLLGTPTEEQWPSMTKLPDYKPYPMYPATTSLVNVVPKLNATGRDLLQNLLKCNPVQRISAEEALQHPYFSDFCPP
Chain of CDK5/p25 (Q15078 99-307 partner limits assumed, species assumed): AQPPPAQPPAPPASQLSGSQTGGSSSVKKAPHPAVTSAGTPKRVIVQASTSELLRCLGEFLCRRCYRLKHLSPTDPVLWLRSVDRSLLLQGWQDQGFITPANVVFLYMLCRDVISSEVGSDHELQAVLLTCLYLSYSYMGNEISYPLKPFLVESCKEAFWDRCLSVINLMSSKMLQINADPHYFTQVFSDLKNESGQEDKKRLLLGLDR
Chain of MEK1 (Q02750 whole entry, species assumed): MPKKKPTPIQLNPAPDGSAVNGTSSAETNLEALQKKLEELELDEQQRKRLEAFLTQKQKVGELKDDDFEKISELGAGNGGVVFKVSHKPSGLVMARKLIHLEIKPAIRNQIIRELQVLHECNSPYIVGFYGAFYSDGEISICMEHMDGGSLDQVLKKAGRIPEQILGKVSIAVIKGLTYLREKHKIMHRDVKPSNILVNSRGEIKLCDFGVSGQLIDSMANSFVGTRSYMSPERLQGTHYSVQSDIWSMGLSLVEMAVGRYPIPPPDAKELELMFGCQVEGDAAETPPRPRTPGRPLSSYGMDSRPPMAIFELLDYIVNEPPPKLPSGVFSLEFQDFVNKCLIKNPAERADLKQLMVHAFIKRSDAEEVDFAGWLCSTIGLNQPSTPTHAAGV

| SMILES | PDK1 phosphorylation of Akt (Thr308) (Western blot) [1] | Dose-dependency of PDK-mediated Akt phosphorylation [1] | % activity vs. DMSO, MEK1 (MEK1) [%] | inhibition at 5 µM (SGK) [%] | % activity vs. DMSO, SGK (SGK) [%] | % activity vs. DMSO, CDK5/p25 (CDK5/p25) [%] | Migration of TPC1 cells (TPC1 cells) |
| --- | --- | --- | --- | --- | --- | --- | --- |
| NCCC(=O)Nc1ccc(-n2nc(C(F)(F)F)cc2-c2ccc3ccc4ccccc4c3c2)cc1 [Compound 4, 3-amino-N-(4-(5-(phenanthren-3-yl)-3-(trifluoromethyl)-1H-pyrazol-1-yl)phenyl)-propanamide] | without altering PDK1 activity; also recorded: did not block PDK1-mediated Akt phosphorylation | not reduced | 106 | > 50 | 27 | 113 | decreased cell motility; also recorded: inhibited migration |
| CC(C)NC(=O)c1cc(-c2ccc3ccc4ccccc4c3c2)n(-c2ccc(NC(=O)CN)cc2)n1 [Compound 15, 1-(4-(2-Aminoacetamido)phenyl)-N-isopropyl-5-(phenanthren-3-yl)-1H-pyrazole-3-carboxamide] | without altering PDK1 activity; also recorded: did not block PDK1-mediated Akt phosphorylation | not reduced | 101 |  | 64 | 93 | decreased cell motility; also recorded: inhibited migration |
